What was measured:
Assay type in all cases: cell-based
[1] = tested on: IL-2 secretion from T cells in human whole blood; details: read-out: WB (IL-2) IC50 (nM, Avg)
[2] = tested on: IFN-g secretion from T cells in human whole blood; details: read-out: WB (IFNg) IC50 (nM, Avg)
[3] = molecular target: hKv1.3 (Homo sapiens, UniProt P22001); test: cell-based; details: Kv1.3 (IWQ) IC50 (nM, Avg)
hKv1.3, sequence (P22001 whole entry): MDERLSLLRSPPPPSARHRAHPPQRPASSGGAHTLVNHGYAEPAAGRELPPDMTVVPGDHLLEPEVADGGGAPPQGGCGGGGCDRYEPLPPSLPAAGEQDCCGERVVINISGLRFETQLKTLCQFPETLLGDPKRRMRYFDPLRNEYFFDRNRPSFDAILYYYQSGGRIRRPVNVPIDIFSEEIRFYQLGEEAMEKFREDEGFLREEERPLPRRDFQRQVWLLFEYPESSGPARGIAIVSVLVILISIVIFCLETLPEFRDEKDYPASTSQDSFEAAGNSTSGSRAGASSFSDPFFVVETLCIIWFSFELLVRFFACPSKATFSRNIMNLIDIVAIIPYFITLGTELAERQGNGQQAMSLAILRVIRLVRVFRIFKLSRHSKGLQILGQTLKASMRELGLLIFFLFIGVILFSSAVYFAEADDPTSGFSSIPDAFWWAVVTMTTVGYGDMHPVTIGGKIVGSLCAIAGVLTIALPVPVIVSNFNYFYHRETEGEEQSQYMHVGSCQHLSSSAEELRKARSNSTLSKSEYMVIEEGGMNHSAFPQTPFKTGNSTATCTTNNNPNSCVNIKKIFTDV

Row | SMILES | IC50 [1] [nM] | IC50 [2] [nM] | IC50 [3] [nM]
1 | CCCC[C@@H]1NC(=O)[C@H](CO)NC(=O)[C@H](Cc2c[nH]cn2)NC(=O)[C@H](CCC(=O)O)NC(=O)[C@@H]2CSSC[C@@H]3NC(=O)[C@H]([C@@H](C)O)NC(=O)[C@H](CCCCN)NC(=O)[C@H](CCCNC(=N)N)NC(=O)[C@H](CSSC[C@H](NC(=O)[C@H](CCCNC(=N)N)NC(=O)[C@H](CO)NC(=O)[C@H](CCCCN)NC(=O)[C@@H]4CCCN4C(=O)[C@H]([C@@H](C)CC)NC(=O)[C@H]([C@@H](C)O)NC(=O)[C@H](CC(=O)O)NC(=O)[C@H]([C@@H](C)CC)NC(=O)[C@@H](NC(=O)[C@H](CO)NC(=O)[C@@H](N)CCCNC(=N)N)CSSC[C@@H](C(N)=O)NC(=O)[C@H]([C@@H](C)O)NC(=O)CNC3=O)C(=O)N[C@@H]([C@@H](C)O)C(=O)N[C@@H](C)C(=O)N[C@@H](Cc3ccccc3)C(=O)N[C@@H](CCCCN)C(=O)N2)NC(=O)[C@H](Cc2ccccc2)NC(=O)[C@H](CO)NC(=O)[C@H](CC(C)C)NC(=O)[C@H](CCCNC(=N)N)NC(=O)[C@H](Cc2ccc(O)cc2)NC(=O)[C@H](CCCCN)NC1=O [[Lys16,Glu18,Nle21]ShK-amide] | 0.477 | 0.929 | 0.28
2 | CCCC[C@@H]1NC(=O)[C@H](CO)NC(=O)[C@H](Cc2c[nH]cn2)NC(=O)[C@H](CCCCN)NC(=O)[C@@H]2CSSC[C@@H]3NC(=O)[C@H]([C@@H](C)O)NC(=O)[C@H](CCCCN)NC(=O)[C@H](CCCNC(=N)N)NC(=O)[C@H](CSSC[C@H](NC(=O)[C@H](CCCNC(=N)N)NC(=O)[C@H](CO)NC(=O)[C@H](CCCCN)NC(=O)[C@@H]4CCCN4C(=O)[C@H]([C@@H](C)CC)NC(=O)[C@H]([C@@H](C)O)NC(=O)[C@H](CC(=O)O)NC(=O)[C@H]([C@@H](C)CC)NC(=O)[C@@H](NC(=O)[C@H](CO)NC(=O)[C@@H](N)CCCNC(=N)N)CSSC[C@@H](C(=O)N[C@@H](C)C(=O)O)NC(=O)[C@H]([C@@H](C)O)NC(=O)CNC3=O)C(=O)N[C@@H]([C@@H](C)O)C(=O)N[C@@H](C)C(=O)N[C@@H](Cc3ccccc3)C(=O)N[C@@H](CCCCN)C(=O)N2)NC(=O)[C@H](Cc2ccccc2)NC(=O)[C@H](CO)NC(=O)[C@H](CC(C)C)NC(=O)[C@H](CCCNC(=N)N)NC(=O)[C@H](Cc2ccc(O)cc2)NC(=O)[C@H](CCCCN)NC1=O [[Lys16,N1e21]ShK-Ala] | 0.305 | 0.515 | 33.3
3 | CCCC[C@@H]1NC(=O)[C@H](CO)NC(=O)[C@H](Cc2c[nH]cn2)NC(=O)[C@H](CCCCN)NC(=O)[C@@H]2CSSC[C@@H]3NC(=O)[C@H]([C@@H](C)O)NC(=O)[C@H](CCCCN)NC(=O)[C@H](CCCNC(=N)N)NC(=O)[C@H](CSSC[C@H](NC(=O)[C@H](CCCNC(=N)N)NC(=O)[C@H](CO)NC(=O)[C@H](CCCCN)NC(=O)[C@@H]4CCCN4C(=O)[C@H]([C@@H](C)CC)NC(=O)[C@H]([C@@H](C)O)NC(=O)[C@H](CC(=O)O)NC(=O)[C@H]([C@@H](C)CC)NC(=O)[C@@H](NC(=O)[C@H](CO)NC(=O)[C@@H](N)CCCNC(=N)N)CSSC[C@@H](C(=O)N[C@@H](CCC(=O)O)C(=O)O)NC(=O)[C@H]([C@@H](C)O)NC(=O)CNC3=O)C(=O)N[C@@H]([C@@H](C)O)C(=O)N[C@@H](C)C(=O)N[C@@H](Cc3ccccc3)C(=O)N[C@@H](CCCCN)C(=O)N2)NC(=O)[C@H](Cc2ccccc2)NC(=O)[C@H](CO)NC(=O)[C@H](CC(C)C)NC(=O)[C@H](CCCNC(=N)N)NC(=O)[C@H](Cc2ccc(O)cc2)NC(=O)[C@H](CCCCN)NC1=O [[Lys16,N1e21]ShK-Glu] | 0.386 | 0.621 | 22.5
4 | CCCC[C@@H]1NC(=O)[C@H](CO)NC(=O)[C@H](Cc2c[nH]cn2)NC(=O)[C@H](CCCCN)NC(=O)[C@@H]2CSSC[C@@H]3NC(=O)[C@H]([C@@H](C)O)NC(=O)[C@H](CCCCN)NC(=O)[C@H](CCCNC(=N)N)NC(=O)[C@H](CSSC[C@H](NC(=O)[C@H](CCCNC(=N)N)NC(=O)[C@H](CO)NC(=O)[C@H](CCCCN)NC(=O)[C@@H]4CCCN4C(=O)[C@H]([C@@H](C)CC)NC(=O)[C@H]([C@@H](C)O)NC(=O)[C@H](CC(=O)O)NC(=O)[C@H]([C@@H](C)CC)NC(=O)[C@@H](NC(=O)[C@H](CO)NC(=O)[C@@H](N)CCCNC(=N)N)CSSC[C@@H](C(=O)N[C@@H](Cc4ccc(O)cc4)C(=O)O)NC(=O)[C@H]([C@@H](C)O)NC(=O)CNC3=O)C(=O)N[C@@H]([C@@H](C)O)C(=O)N[C@@H](C)C(=O)N[C@@H](Cc3ccccc3)C(=O)N[C@@H](CCCCN)C(=O)N2)NC(=O)[C@H](Cc2ccccc2)NC(=O)[C@H](CO)NC(=O)[C@H](CC(C)C)NC(=O)[C@H](CCCNC(=N)N)NC(=O)[C@H](Cc2ccc(O)cc2)NC(=O)[C@H](CCCCN)NC1=O [[Lys16,N1e21]ShK-Tyr] | 0.418 | 0.485 | 109
5 | CCCC[C@@H]1NC(=O)[C@H](CO)NC(=O)[C@H](Cc2c[nH]cn2)NC(=O)[C@H](CCCCN)NC(=O)[C@@H]2CSSC[C@@H]3NC(=O)[C@H]([C@@H](C)O)NC(=O)[C@H](CCCCN)NC(=O)[C@H](CCCNC(=N)N)NC(=O)[C@H](CSSC[C@H](NC(=O)[C@H](CCCNC(=N)N)NC(=O)[C@H](CO)NC(=O)[C@H](CCCCN)NC(=O)[C@@H]4CCCN4C(=O)[C@H]([C@@H](C)CC)NC(=O)[C@H]([C@@H](C)O)NC(=O)[C@H](CC(=O)O)NC(=O)[C@H]([C@@H](C)CC)NC(=O)[C@@H](NC(=O)[C@H](CO)NC(=O)[C@@H](N)CCCNC(=N)N)CSSC[C@@H](C(=O)O)NC(=O)[C@H]([C@@H](C)O)NC(=O)CNC3=O)C(=O)N[C@@H]([C@@H](C)O)C(=O)N[C@@H](C)C(=O)N[C@@H](Cc3ccccc3)C(=O)N[C@@H](CCCCN)C(=O)N2)NC(=O)[C@H](Cc2ccccc2)NC(=O)[C@H](CO)NC(=O)[C@H](CC(C)C)NC(=O)[C@H](CCCNC(=N)N)NC(=O)[C@H](Cc2ccc(O)cc2)NC(=O)[C@H](CCCCN)NC1=O [[Lys16,N1e21]ShK] | 0.249 | 0.848 | 0.13
6 | CCC[C@@H]1NC(=O)[C@H](CO)NC(=O)[C@H](Cc2c[nH]cn2)NC(=O)[C@H](CCCCN)NC(=O)[C@@H]2CSSC[C@@H]3NC(=O)[C@H]([C@@H](C)O)NC(=O)[C@H](CCCCN)NC(=O)[C@H](CCCNC(=N)N)NC(=O)[C@H](CSSC[C@H](NC(=O)[C@H](CCCNC(=N)N)NC(=O)[C@H](CO)NC(=O)[C@H](CCCCN)NC(=O)[C@@H]4CCCN4C(=O)[C@H]([C@@H](C)CC)NC(=O)[C@H]([C@@H](C)O)NC(=O)[C@H](CC(=O)O)NC(=O)[C@H]([C@@H](C)CC)NC(=O)[C@@H](NC(=O)[C@H](CO)NC(=O)[C@@H](N)CCCNC(=N)N)CSSC[C@@H](C(=O)NC(C)(C)C(N)=O)NC(=O)[C@H]([C@@H](C)O)NC(=O)CNC3=O)C(=O)N[C@@H]([C@@H](C)O)C(=O)N[C@@H](C)C(=O)N[C@@H](Cc3ccccc3)C(=O)N[C@@H](CCCCN)C(=O)N2)NC(=O)[C@H](Cc2ccccc2)NC(=O)[C@H](CO)NC(=O)[C@H](CC(C)C)NC(=O)[C@H](CCCNC(=N)N)NC(=O)[C@H](Cc2ccc(O)cc2)NC(=O)[C@H](CCCCN)NC1=O [[Lys16,Nva21]ShK-Aib-amide] | 0.483 | 0.722 | 0.03
7 | CCC[C@@H]1NC(=O)[C@H](CO)NC(=O)[C@H](Cc2c[nH]cn2)NC(=O)[C@H](CCCCN)NC(=O)[C@@H]2CSSC[C@@H]3NC(=O)[C@H]([C@@H](C)O)NC(=O)[C@H](CCCCN)NC(=O)[C@H](CCCNC(=N)N)NC(=O)[C@H](CSSC[C@H](NC(=O)[C@H](CCCNC(=N)N)NC(=O)[C@H](CO)NC(=O)[C@H](CCCCN)NC(=O)[C@@H]4CCCN4C(=O)[C@H]([C@@H](C)CC)NC(=O)[C@H]([C@@H](C)O)NC(=O)[C@H](CC(=O)O)NC(=O)[C@H]([C@@H](C)CC)NC(=O)[C@@H](NC(=O)[C@H](CO)NC(=O)[C@@H](N)CCCNC(=N)N)CSSC[C@@H](C(=O)N[C@@H](C)C(N)=O)NC(=O)[C@H]([C@@H](C)O)NC(=O)CNC3=O)C(=O)N[C@@H]([C@@H](C)O)C(=O)N[C@@H](C)C(=O)N[C@@H](Cc3ccccc3)C(=O)N[C@@H](CCCCN)C(=O)N2)NC(=O)[C@H](Cc2ccccc2)NC(=O)[C@H](CO)NC(=O)[C@H](CC(C)C)NC(=O)[C@H](CCCNC(=N)N)NC(=O)[C@H](Cc2ccc(O)cc2)NC(=O)[C@H](CCCCN)NC1=O [[Lys16,Nva21]ShK-Ala-amide] | 0.431 | 1.46 | 0.08
8 | CCC[C@@H]1NC(=O)[C@H](CO)NC(=O)[C@H](Cc2c[nH]cn2)NC(=O)[C@H](CCCCN)NC(=O)[C@@H]2CSSC[C@@H]3NC(=O)[C@H]([C@@H](C)O)NC(=O)[C@H](CCCCN)NC(=O)[C@H](CCCNC(=N)N)NC(=O)[C@H](CSSC[C@H](NC(=O)[C@H](CCCNC(=N)N)NC(=O)[C@H](CO)NC(=O)[C@H](CCCCN)NC(=O)[C@@H]4CCCN4C(=O)[C@H]([C@@H](C)CC)NC(=O)[C@H]([C@@H](C)O)NC(=O)[C@H](CC(=O)O)NC(=O)[C@H]([C@@H](C)CC)NC(=O)[C@@H](NC(=O)[C@H](CO)NC(=O)[C@@H](N)CCCNC(=N)N)CSSC[C@@H](C(=O)N[C@@H](C)C(=O)O)NC(=O)[C@H]([C@@H](C)O)NC(=O)CNC3=O)C(=O)N[C@@H]([C@@H](C)O)C(=O)N[C@@H](C)C(=O)N[C@@H](Cc3ccccc3)C(=O)N[C@@H](CCCCN)C(=O)N2)NC(=O)[C@H](Cc2ccccc2)NC(=O)[C@H](CO)NC(=O)[C@H](CC(C)C)NC(=O)[C@H](CCCNC(=N)N)NC(=O)[C@H](Cc2ccc(O)cc2)NC(=O)[C@H](CCCCN)NC1=O [[Lys16,Nva21]ShK-Ala] | 0.164 | 0.307 | 13.5

Reference: US20120121591A1 (priority 2009, published 2012)
